Data on 8 compounds can be found in ChEMBL document CHEMBL1201862, “PubChem BioAssay data set” (2004).

Some test systems named below: 786-0; M14; Malme-3M; OVCAR-8; DMS-114; CAKI-1; SF-295; NCI-H522; HT-29; SF-268; HOP-62; TK-10; EKVX; RPMI-8226; HCT-15; CCRF-CEM; SW-620; SF-539.
Holding throughout (experiment): NCI-60 cell line screen, 48 h

Several values for one entry are separate records, joined by “and”; a condition that tells them apart may be missing. Identical values can stand only once.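 Growth conditions: 96-well plates. Treatment: test compound, 48 hours, 5 concentrations. Analysis: linear interpolation between bracketing concentrations; unreached endpoints set to highest concentration. Here, GI50 denotes the concentration required for 50% inhibition of growth.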 Activity calls are given as the source filed them. Rule as the data show it: active = GI50 up to about 1.1 µM and inactive = higher. Bounds are passed on as bounds.

For `O=c1ncccn1[C@@H]1O[C@H](CO)[C@@H](O)[C@@H]1F`, the GI50 was > 100 µM (inactive) with 786-0; > 100 µM (inactive) with M14; > 100 µM (inactive) and > 67.1 µM (inactive) in the assay on Malme-3M; > 100 µM (inactive) and > 95.9 µM (inactive) in the assay on OVCAR-8; > 100 µM (inactive) and > 58.7 µM (inactive) with DMS-114; > 100 µM (inactive) in the assay on CAKI-1. For the same compound, the GI50 was > 100 µM (inactive) in the assay on SF-295; > 100 µM (inactive) with NCI-H522; > 100 µM (inactive) and > 61.9 µM (inactive) in the assay with HT-29; > 100 µM (inactive) in the assay with SF-268; > 68.5 µM (inactive) in the assay with HOP-62; > 100 µM (inactive) and > 69.5 µM (inactive) in the assay on TK-10. Further, the GI50 with EKVX and in the assay on RPMI-8226 was > 100 µM (inactive) each time.

Take `COc1cc2c(cc1OC)[C@H]1C(COC(=O)c3ccccc3)CS/C(=N/c3ccccc3)N1CC2` (some centres undefined): the GI50 with 786-0 was > 100 µM (inactive); in the assay on M14, > 100 µM (inactive); in the assay on Malme-3M, > 100 µM (inactive); with OVCAR-8, > 100 µM (inactive); with DMS-114, 17.1 µM (inactive); with CAKI-1, > 100 µM (inactive). Besides, the GI50 was above 100 µM in the assay on HCT-15; > 100 µM (inactive) in the assay with SF-295; > 100 µM (inactive) in the assay with CCRF-CEM; > 100 µM (inactive) in the assay on SW-620; 2.34 µM (inactive) in the assay with NCI-H522; > 100 µM (inactive) in the assay with SF-539. Further, the GI50 with HT-29 was 8.24 µM (inactive); with SF-268, 8.69 µM (inactive); in the assay on HOP-62 it was > 100 µM (inactive); in the assay with TK-10 it was 81.1 µM (inactive); in the assay on EKVX, > 100 µM (inactive); in the assay on RPMI-8226, 4.33 µM (inactive).

In the case of `C=CC1(C(=O)O)CCC(C(C)(C)C)CC1` (centres undefined), the GI50 with 786-0, in the assay with M14, with Malme-3M, with OVCAR-8, in the assay with DMS-114 and with CAKI-1 was > 100 µM (inactive) throughout. For the same compound, the GI50 was above 100 µM with HCT-15; > 100 µM (inactive) in the assay with SF-295; > 100 µM (inactive) in the assay with SW-620; 86.1 µM (inactive) with NCI-H522; > 100 µM (inactive) with SF-539; > 100 µM (inactive) in the assay on HT-29. In addition, the GI50 in the assay with SF-268, with HOP-62, in the assay on TK-10, in the assay on EKVX and in the assay on RPMI-8226 was > 100 µM (inactive) throughout.

Turning to `COc1cc(/C=C2\NC(=S)C3Cc4c(OC)c(C)c(OC)c(OC)c4C2N3C)c(OC)c(C)c1OC` (centres undefined), the GI50 in the assay with 786-0 was 73.1 µM (inactive); in the assay on M14 it was 42.8 µM (inactive); in the assay with Malme-3M, 29 µM (inactive); with OVCAR-8, 32.5 µM (inactive); with DMS-114, 27.5 µM (inactive); in the assay with CAKI-1, 58.1 µM (inactive). For the same compound, the GI50 is 50.5 µM (inactive) in the assay with SF-295; 38.7 µM (inactive) in the assay on CCRF-CEM; 59.4 µM (inactive) in the assay with SW-620; 20 µM (inactive) in the assay on NCI-H522; > 100 µM (inactive) in the assay on SF-539; 61.4 µM (inactive) with HT-29. For the same compound, the GI50 in the assay with SF-268 was 95.3 µM (inactive); with HOP-62, > 100 µM (inactive); with TK-10, 46 µM (inactive); in the assay with EKVX it was 36.8 µM (inactive); in the assay on RPMI-8226, 25.6 µM (inactive).

With `COc1cc(-c2cc(=O)c3cc(C)c(C)c(C(=O)O)c3o2)cc(OC)c1OC`, the GI50 was > 100 µM (inactive) with 786-0; > 100 µM (inactive) in the assay on M14; > 100 µM (inactive) in the assay with Malme-3M; > 100 µM (inactive) in the assay on OVCAR-8; > 100 µM (inactive) in the assay with DMS-114; above 100 µM in the assay on HCT-15. For the same compound, the GI50 was > 100 µM (inactive) with SF-295; > 100 µM (inactive) in the assay with CCRF-CEM; > 100 µM (inactive) with SW-620; 67.6 µM (inactive) in the assay on NCI-H522; > 100 µM (inactive) in the assay with SF-539; > 100 µM (inactive) in the assay on HT-29. Moreover, the GI50 in the assay with SF-268, in the assay with HOP-62, in the assay with TK-10, in the assay with EKVX and in the assay on RPMI-8226 was > 100 µM (inactive) each time.

Consider `CC1C(c2ccccc2)=CCON1c1ccccc1` (centres undefined), for which the GI50 with 786-0, in the assay with M14, in the assay with Malme-3M, in the assay with OVCAR-8, in the assay with DMS-114 and in the assay with CAKI-1 was > 100 µM (inactive) each time. Further, the GI50 in the assay with HCT-15 is above 100 µM; in the assay on SF-295, > 100 µM (inactive); with CCRF-CEM, > 100 µM (inactive); with SW-620, > 100 µM (inactive); in the assay with NCI-H522 it was > 100 µM (inactive); in the assay on SF-539, > 100 µM (inactive). In addition, the GI50 in the assay on HT-29, in the assay with SF-268, with HOP-62, in the assay with EKVX and with RPMI-8226 was > 100 µM (inactive) in each case.

`S=c1sc2c(Cl)ncnc2n1-c1ccccc1`: the GI50 with 786-0 was 15.1 µM (inactive); with M14 it was 13.3 µM (inactive); in the assay on Malme-3M, 10.9 µM (inactive); in the assay with OVCAR-8, 16.1 µM (inactive); in the assay with DMS-114, 13.6 µM (inactive); in the assay on CAKI-1, 4.88 µM (inactive). The GI50 was 15.1 µM with HCT-15; 12.8 µM (inactive) with SF-295; 17.4 µM (inactive) in the assay with SW-620; 2.01 µM (inactive) in the assay on NCI-H522; 16.3 µM (inactive) with SF-539; 11.4 µM (inactive) in the assay on HT-29. Also, the GI50 is 5.05 µM (inactive) in the assay with SF-268; 15.6 µM (inactive) in the assay with HOP-62; 17.8 µM (inactive) with TK-10; 17.7 µM (inactive) in the assay on EKVX; 23.8 µM (inactive) in the assay on RPMI-8226.

On to `CCOC(=O)C(Cc1cn(S(=O)(=O)c2ccccc2)c2ccccc12)(NC(C)=O)C(=O)OCC`, for which the GI50 was 72.8 µM (inactive) with 786-0; 32.1 µM (inactive) in the assay with M14; 37.9 µM (inactive) in the assay on Malme-3M; 33 µM (inactive) with OVCAR-8; 23.9 µM (inactive) in the assay with DMS-114; 49.1 µM (inactive) in the assay with CAKI-1. Besides, the GI50 with HCT-15 is 42.5 µM; in the assay with SF-295 it was 29.1 µM (inactive); in the assay on CCRF-CEM it was 25.1 µM (inactive); in the assay with SW-620 it was 54.2 µM (inactive); in the assay with NCI-H522, 15.3 µM (inactive); in the assay on SF-539 it was 30.3 µM (inactive). The GI50 with HT-29 was 58.5 µM (inactive); with SF-268, 40 µM (inactive); with HOP-62, 27.2 µM (inactive); in the assay with TK-10 it was 65.5 µM (inactive); with RPMI-8226, 13.1 µM (inactive).
